These results are taken from the OPERA property sets (Mansouri et al. 2018).

Conditions in one data set: not given
Take `C=C[C@H]1CNCC[C@H]1CCC(=O)c1ccnc2ccccc12`: the melting point (usually the temperature, or range, at which the solid turns liquid) stood at 59 °C.

In the case of `COC(=O)c1ccccn1`, the melting point stood at 18.7 °C.

As to `CCC(=O)NC`, the boiling point (commonly the temperature of boiling at a given pressure) was 148 °C, the log10 vapour pressure (mmHg) is 0.0603 and the melting point was -30.9 °C. Molecule `CCOc1nc(F)cc2nc(S(=O)(=O)Nc3c(Cl)cccc3C(=O)OC)nn12` displayed a melting point of 217 °C.

`Nc1cccc2cc(O)ccc12` returned a melting point of 191 °C. Molecule `COC(=O)CC(=O)OC` showed a boiling point of 181 °C, a log10 vapour pressure (mmHg) of -0.0458 and a melting point of -61.9 °C.

Take `O=[N+]([O-])c1c(Cl)ccc2ccccc12`: the melting point amounted to 99.5 °C.

`Clc1ccc(Cl)c(-c2cc(Cl)c(Cl)c(Cl)c2Cl)c1`: the log10 Henry constant (atm·m³/mol) was -4.64. The molecule `CC(CNC(=O)c1ccccc1)C(=O)OCC(=O)[C@@]12OC(C)(C)O[C@@H]1C[C@H]1[C@@H]3CCC4=CC(=O)C=C[C@]4(C)[C@@]3(F)[C@@H](O)C[C@@]12C` (stereo not given in full) registered a melting point of 205 °C.

Take `Nc1ccc2c(S(=O)(=O)O)cccc2c1S(=O)(=O)O`: the ready biodegradability result is “not readily biodegradable”. In the case of `O=CC1CCCO1` (stereo not given), the boiling point was 142 °C.

On to `NC(=O)Oc1ccc(Cc2ccccc2)cc1`, for which the melting point was 148 °C. `O=C(Cl)c1cc([N+](=O)[O-])cc([N+](=O)[O-])c1` showed a melting point of 74 °C. Turning to `Cc1c(Cc2cc(C(C)(C)C)c(O)c(C(C)(C)C)c2)c(C)c(Cc2cc(C(C)(C)C)c(O)c(C(C)(C)C)c2)c(C)c1Cc1cc(C(C)(C)C)c(O)c(C(C)(C)C)c1`, the melting point was 244 °C and the ready biodegradability entry was “not readily biodegradable”. `C/C=C(/C)C(C)C` came in with a boiling point of 89.9 °C and a melting point of -121 °C. Molecule `CC(=O)NCCSC(C)=O` displayed a melting point of 32.5 °C. Molecule `CC(=O)c1cc2ccccc2o1` had a melting point of 76 °C. In turn, `N#Cc1ccco1` yielded a boiling point of 147 °C.

Molecule `C=Cc1c(Cl)cccc1Cl` came in with a melting point of 89 °C. `CC(=O)OC[C@H]([C@H](OC(C)=O)c1ccccc1)[N+](=O)[O-]` returned a melting point of 70 °C. Molecule `NS(=O)(=O)c1ccc(Cl)c(S(N)(=O)=O)c1` yielded a melting point of 207 °C. Turning to `Cc1ccc([N+](=O)[O-])cc1S(=O)(=O)O`, the ready biodegradability result is given as “not readily biodegradable”. Molecule `CCC(C)OC(C)CC` (stereo not given) had a log10 vapour pressure (mmHg) of 1.21 and a melting point of -100 °C. For `Clc1cc2oc3cc(Cl)c(Cl)c(Cl)c3c2cc1Cl`, the log10 vapour pressure (mmHg) is -8.76 and the melting point was found to be 225 °C. Turning to `Clc1ccccc1`, the boiling point worked out at 132 °C, the log10 Henry constant (atm·m³/mol) is -2.51, the log10 Koa was found to be 3.31 and the log10 Koc (L/kg) was determined as 2.15. The log10 vapour pressure (mmHg) worked out at 1.08, the melting point is -45.2 °C and the ready biodegradability entry is listed as “not readily biodegradable”. `c1ccc(C2=N[C@H](c3ccccc3)[C@@H](c3ccccc3)N2)cc1` registered a melting point of 134 °C.

With `NCCNCCNCCN`, the boiling point was 266 °C, the melting point is 12 °C and the ready biodegradability result is “not readily biodegradable”. In the case of `Cc1csc(S)n1`, the melting point was found to be 89.3 °C. `COC(=O)c1cccc2ccccc12` had a melting point of 59.5 °C. Regarding `C#CCOc1cc(-n2nc3n(c2=O)CCCC3)c(Cl)cc1Cl`, the log10 vapour pressure (mmHg) was -11.1 and the melting point was 168 °C. For the molecule `CCCCCCOC(=O)CCCC`, the boiling point is 226 °C and the melting point is -63.1 °C. As for `Clc1cccc2cc3ccccc3cc12`, the melting point is 83.5 °C. On to `CN(C)c1ccc(N)cc1`, for which the boiling point is 263 °C and the melting point was 53 °C.

In turn, `CC(C)=CC=C(C)C` returned a boiling point of 134 °C and a melting point of 14 °C.

As for `Clc1cccc(Cl)c1Cl`, the boiling point was found to be 218 °C, the log10 Henry constant (atm·m³/mol) is -2.9, the log10 Koa was 5.19 and the log10 Koc (L/kg) came to 3.33. Also, the log10 vapour pressure (mmHg) is -0.678, the melting point stood at 53.5 °C and the ready biodegradability entry is “not readily biodegradable”.

With `O=C(O)[C@@H](CO)c1ccccc1`, the melting point was 118 °C. Same read-out and setting: the same measure for `COc1ccc(/C=C/c2cc(OC)cc(=O)o2)cc1`: 156 °C.

Still in this data set, the particulars now being: fish.
Turning to `Clc1cc2oc3cc(Cl)c(Cl)c(Cl)c3c2cc1Cl`, the log10 BCF came out at 3.58. For the molecule `Clc1ccccc1`, the log10 BCF was determined as 1.25 and the log10 biotransformation half-life (days) was -1.02. `CC(C)=CC=C(C)C` gave a log10 BCF of 2.32 and a log10 biotransformation half-life (days) of 0.49. On the same counts, the results for `Clc1cccc(Cl)c1Cl` are 2.82 and 0.92.
